Patent US20180273480A1, “INOSITOL NICOTINATE CRYSTALLINE FORM A AND PREPARATION METHOD THEREFOR” (WEIFANG SHENGYU PHARMA CO., LTD., priority 2015, published 2018)

How the values were obtained:
[1] = cited from earlier work
[2] = Storage stability of the crystal form at 40° C. and 75% RH for six months, XRPD comparison (FIG. 5); format: physicochemical; conditions: stored at 40° C. and 75% RH for six months
Method: FIG. 5 is an X-ray powder diffraction (XRPD) comparison diagram of crystal form A of inositol nicotinate provided by the present invention stored for half a year at 40° C. and under the condition of 75% of relative humidity.
XRPD analysis: It was detected at room temperature using a Bruker D8 advance type diffractometer from German Brook Instrument Co., Ltd by Cu-Kα rays (λ=1.5418 Å), with a 2θ angle scanning from 3° to 40°, and the scanning speed was 0.2°/second.
The crystal form A of inositol nicotinate obtained in the above examples was stored under conditions of 40° C. and 75% RH for six months.

Row | crystal form after storage (physical stability, XRPD comparison) [2] | SMILES | solubility in chloroform ([1]; chloroform) | solubility in ethanol ([1]; ethanol and other organic solvents) | solubility in dimethyl sulfoxide ([1]; hot dimethylformamide or dimethyl sulfoxide) | solubility in hot dimethylformamide ([1]; hot dimethylformamide) | solubility in water ([1]; water)
1 | – | O=C(O[C@H]1[C@H](OC(=O)c2cccnc2)[C@@H](OC(=O)c2cccnc2)[C@H](OC(=O)c2cccnc2)[C@@H](OC(=O)c2cccnc2)[C@H]1OC(=O)c1cccnc1)c1cccnc1 [Inositol nicotinate, cis-1,2,3,5-trans-4,6-cyclohexanehexol niacinate] | very slightly soluble | insoluble | only soluble | only soluble | insoluble
2 | has not changed | O=C(O[C@H]1[C@H](OC(=O)c2cccnc2)[C@@H](OC(=O)c2cccnc2)[C@H](OC(=O)c2cccnc2)[C@@H](OC(=O)c2cccnc2)[C@H]1OC(=O)c1cccnc1)c1cccnc1 [crystal form A of inositol nicotinate, cis-1,2,3,5-trans-4,6-cyclohexanehexol niacinate] | – | – | – | – | –
